Activity calls are given as the source filed them. No rule for the calls is given here.
Target: Chaperone protein DnaK (Escherichia coli (strain K12)) (UniProt P0A6Y8)
Test: E. coli DnaK SBD ligand binding – biophysical, NMR, chaperone (AID 1033)
Settings: Purified DnaK SBD

Chaperone protein DnaK (Escherichia coli (strain K12)), sequence (P0A6Y8 whole entry, looked up): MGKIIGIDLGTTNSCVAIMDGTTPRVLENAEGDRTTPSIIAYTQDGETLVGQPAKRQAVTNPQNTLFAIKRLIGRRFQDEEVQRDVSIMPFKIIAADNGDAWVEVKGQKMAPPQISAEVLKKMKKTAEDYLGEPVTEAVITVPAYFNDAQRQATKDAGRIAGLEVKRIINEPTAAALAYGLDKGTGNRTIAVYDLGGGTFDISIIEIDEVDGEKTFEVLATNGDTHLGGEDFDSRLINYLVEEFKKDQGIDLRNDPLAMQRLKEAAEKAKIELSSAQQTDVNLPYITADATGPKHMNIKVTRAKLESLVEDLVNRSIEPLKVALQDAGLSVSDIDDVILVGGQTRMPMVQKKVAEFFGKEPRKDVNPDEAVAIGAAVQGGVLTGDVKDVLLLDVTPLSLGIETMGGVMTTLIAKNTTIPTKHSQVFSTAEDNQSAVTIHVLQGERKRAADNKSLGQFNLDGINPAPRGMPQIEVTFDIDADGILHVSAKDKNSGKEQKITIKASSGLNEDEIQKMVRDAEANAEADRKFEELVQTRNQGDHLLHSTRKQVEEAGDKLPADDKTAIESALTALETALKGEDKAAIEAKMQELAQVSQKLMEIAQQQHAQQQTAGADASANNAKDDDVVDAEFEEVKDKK

SMILES	Kd
CC1(C)C2CC(=O)[C@]3(C)C(CC[C@@]4(C)[C@H](c5ccoc5)OC(=O)C5OC543)[C@@]2(C)[C@@H](O)C[C@H]1O (stereo partly drawn)	> 4 mM (inactive)
Cc1ccc2[nH]c3nc(=S)[nH]nc3c2c1	> 4 mM (inactive)
Cn1c(NCc2ccco2)nc2ccccc21	> 4 mM (inactive)
COc1c2occc2cc2ccc(=O)oc12	> 4 mM (inactive)
CS(=O)(=O)Nc1cc2c3c(c1)CCN3C(=O)CC2	> 4 mM (inactive)
O=C1C2C3C=CC(C3)C2C(=O)N1CCCO (stereo not drawn)	> 4 mM (inactive)
O=C(O)C1(S(=O)(=O)c2ccccc2)CC1	> 4 mM (inactive)
Cc1cccnc1NC1=NCC(C)S1 (stereo not drawn)	> 4 mM (inactive)
Cc1cc(=O)n(CC(C)C)c(O)c1C#N	> 4 mM (inactive)
c1ccc(CNc2ncnc3nc[nH]c23)nc1	> 4 mM (inactive)
O=C1CCCC(=O)N1Cc1ccco1	> 4 mM (inactive)
O=c1c[n+]([O-])c2ccccc2n1OCc1ccccc1	> 4 mM (inactive)
O=C(NCc1cccs1)c1ccncc1	> 4 mM (inactive)
O=C(O)CNS(=O)(=O)c1cccs1	> 4 mM (inactive)
O=C1CSC(=O)N1CNc1ccccc1	> 4 mM (inactive)
Nc1ccccc1OC(F)(F)F	> 4 mM (inactive)
O=C(CSc1nnc2ccccn12)N1CCOCC1	> 4 mM (inactive)
COc1cccc2c(=O)n(CC(N)=O)ccc12	> 4 mM (inactive)
O=C(NN1CCOCC1)c1ccccc1F	> 4 mM (inactive)
O=c1cc(-c2ccc(O)cc2)[nH]c(=S)[nH]1	> 4 mM (inactive)
C=C1C2CC[C@H]3[C@]4(C)C[C@H](OC5OC(CO)C(OS(=O)(=O)O)C(OS(=O)(=O)O)C5OC(=O)CC(C)C)C[C@@H](C(=O)O)[C@H]4CC[C@]3(C2)[C@H]1O (stereo partly drawn)	> 4 mM (inactive)

SMILES	Kd
COc1ccc([C@@H]2CC(=O)c3c(O)cc(O[C@@H]4O[C@H](CO[C@H]5O[C@@H](C)[C@H](O)[C@@H](O)[C@H]5O)[C@@H](O)[C@H](O)[C@H]4O)cc3O2)cc1O	> 4 mM (inactive)
O=c1c2ccccc2nc2n1CCS2	> 4 mM (inactive)
NC(=O)CN1CC(=O)NC(=O)C1	> 4 mM (inactive)
CN(C)C(=O)Nc1ccc2c(c1)nnn2C	> 4 mM (inactive)
CN1C(=O)C(Cc2c[nH]c3ccccc23)C(=O)N(C)C1=O	> 4 mM (inactive)
O=C(O)Cn1nnn(-c2ccccc2)c1=S	> 4 mM (inactive)
N[C@@H](Cc1cc(I)c(Oc2cc(I)c(O)c(I)c2)c(I)c1)C(=O)O	> 4 mM (inactive)
O=C(CS(=O)(=O)c1ccccc1)N1CCCCCC1	> 4 mM (inactive)
CN(C)C(=O)C12CCC(C)(C(=O)O1)C2(C)C (stereo not drawn)	> 4 mM (inactive)
O=C(C1CCC(C(=O)N2CCCC2)CC1)N1CCCC1 (stereo not drawn)	> 4 mM (inactive)
Cn1cccc1C(=S)N1CCOCC1	> 4 mM (inactive)
Cc1ccc(/C=C2/NC(=S)NC2=O)s1	> 4 mM (inactive)
Cc1cc2c(N)cccc2nn1	> 4 mM (inactive)
COCC(=O)Nc1c(C(N)=O)oc2ccccc12	> 4 mM (inactive)
COc1ccc(CN2CCOCC2)c(C)c1C	> 4 mM (inactive)
COc1cc2c(cc1OC)[C@@]13CCN4CC5=CCOC6CC(=O)N2C1[C@H]6[C@H]5C[C@H]43 (stereo partly drawn)	> 4 mM (inactive)
COc1nc(N2CCOCC2)nc(N)c1[N+](=O)[O-]	> 4 mM (inactive)
Cc1nc2ccccc2c(=O)n1CCCn1ccnc1	> 4 mM (inactive)
C[C@H]1[C@H](C)CC[C@]2(C(=O)O)CC[C@]3(C)C(=CCC4[C@@]5(C)C[C@@H](O)[C@H](O)[C@@](C)(CO)C5[C@H](O)C[C@]43C)[C@H]12 (stereo partly drawn)	> 4 mM (inactive)
COc1ccc(N2C(=O)CCC2=O)c(OC)c1	> 4 mM (inactive)
NC(=O)CSc1nnnn1-c1ccccc1	> 4 mM (inactive)

SMILES	Kd
COc1ccc2c(c1)[nH]c1c(C)nccc12	> 4 mM (inactive)
NC(=O)CSc1nc2[nH]ncc2c(=O)[nH]1	> 4 mM (inactive)
CCn1cnc2sc(C(=O)O)c(C)c2c1=O	> 4 mM (inactive)
Cc1cc(C)n(CC(=O)O)n1	> 4 mM (inactive)
Cc1ccc(S(C)(=O)=O)s1	> 4 mM (inactive)
Cc1c(C(=O)O)cnn1-c1ccccc1	> 4 mM (inactive)
CCC(=O)Nc1cc(C(C)C)c(O)cc1C	> 4 mM (inactive)
CCn1cnc(C(=O)NC)c1C(=O)NC	> 4 mM (inactive)
C[N+](C)(C)CC(O)CC(=O)O (stereo not drawn)	> 4 mM (inactive)
CC(=O)Nc1ccc(NC(=O)C2CC2)cc1	> 4 mM (inactive)
COc1cccc(/C=C2/SC(N)=NC2=O)c1	> 4 mM (inactive)
CN1CCN(C(=O)Nc2cccc3ccccc23)CC1	> 4 mM (inactive)
NC(=O)c1oc2ccccc2c1N	> 4 mM (inactive)
O=c1cc(-c2ccc(O)cc2)oc2cc(O[C@@H]3O[C@H](CO)[C@@H](O)[C@H](O)[C@H]3O[C@@H]3OC[C@](O)(CO)[C@H]3O)cc(O)c12	> 4 mM (inactive)
Cc1cc(N(CN2CCCC2=O)C(=O)c2ccccc2)no1	> 4 mM (inactive)
COC(=O)Nc1nc2c(s1)CCCC2	> 4 mM (inactive)
O=C(O)c1cc(O)c2c(c1)C(=O)c1cc(O)cc(O)c1C2=O	> 4 mM (inactive)
CS(=O)(=O)N1CCN(C(=O)c2ccccc2)CC1	> 4 mM (inactive)
CCC(=O)Nc1ccc(-c2nn3c(C)nnc3s2)cc1	> 4 mM (inactive)
Cc1nnc2ccc(N3CCCC3)nn12	> 4 mM (inactive)
Cc1c(C)n2c(SCC(N)=O)nnc2[nH]c1=O	> 4 mM (inactive)

SMILES	Kd
Cc1c(C)c2c(c(C)c1O)CCC(C)(CCCC(C)CCCC(C)CCCC(C)C)O2 (stereo not drawn)	> 4 mM (inactive)
Cc1cc(C)n(CCC(=O)O)n1	> 4 mM (inactive)
O=C(O)CCC(=O)c1c[nH]c2ccccc12	> 4 mM (inactive)
COC(=O)c1ccc(NC(=O)CC2NCCNC2=O)cc1 (stereo not drawn)	> 4 mM (inactive)
CCOC(=O)C1C(C=C(C)C)C1(C)C (stereo not drawn)	> 4 mM (inactive)
c1ccc(Cc2nn3c(-c4ccncc4)nnc3s2)cc1	> 4 mM (inactive)
OCc1ccc2nonc2c1	> 4 mM (inactive)
NC12CC3CC(C1)CC(C(=O)O)(C3)C2	> 4 mM (inactive)
COC(=O)c1ccccc1C	> 4 mM (inactive)
CC(C)[C@@H]1CC[C@@H](C)C[C@H]1OC(=O)c1ccccc1	> 4 mM (inactive)
OCCNC(=S)Nc1ccc(F)cc1	> 4 mM (inactive)
N#Cc1c[nH]n2c(=O)cc(Cc3ccccc3)nc12	> 4 mM (inactive)
Nc1ccc(N2CCCCC2)cc1	> 4 mM (inactive)
CC1O[C@@H](Oc2c(-c3ccc(O)c(O)c3)oc3cc(O)cc(O)c3c2=O)[C@H](O)[C@H](O)[C@H]1O (stereo partly drawn)	> 4 mM (inactive)
COc1ccc(-c2ccc(=O)n(CC(N)=O)n2)cc1	> 4 mM (inactive)
O=C(Nc1cnccn1)c1cccc(C(F)(F)F)c1	> 4 mM (inactive)
CCOC(=O)C1CCN(c2ccc(C#N)cc2)CC1	> 4 mM (inactive)
Nc1nc2ccccc2n1CCN1CCCC1	> 4 mM (inactive)
NC(=O)C1CCN(CC2CC=CCC2)CC1 (stereo not drawn)	> 4 mM (inactive)
Cc1nnc(Nc2cccnc2)[nH]c1=O	> 4 mM (inactive)

Reference: PubChem BioAssay AID1033 (Sanford-Burnham Center for Chemical Genomics, 2008)
